pIC50: −log10 of the molar value.
Legend:
Oryctolagus cuniculus = species: Oryctolagus cuniculus; test: Selectivity ratio of IC50 for inhibition of SOAT2 in New Zealand white rabbit intestinal microsomes to IC50 for inhibition of SOAT1 in arterial homogenates isolated from 1% cholesterol fed New Zealand white rabbit
[1] = Inhibition of SOAT2 in New Zealand white rabbit intestinal microsomes assessed as reduction in cholesteryl oleate formation incubated for 5 mins in presence of [14C]-oleoyl-CoA and BSA complex by TLC method; design: species or system Oryctolagus cuniculus, Intestine
[2] = Inhibition of SOAT1 in arterial homogenates isolated from 1% cholesterol fed New Zealand white rabbit assessed as reduction in cholesteryl oleate formation incubated for 5 mins in presence of [14C]-oleoyl-CoA and BSA complex by TLC method; format: tissue-based, Oryctolagus cuniculus
[3] = target: T1, Sterol O-acyltransferase 1 (Mus musculus, UniProt Q61263); test: Inhibition of ACAT1 in mouse J774 cells assessed as reduction in esterified cholesterol accumulation after 18 hrs in presence of 25-hydroxycholesterol; format: cell-based
T1 sequence (Q61263 whole entry): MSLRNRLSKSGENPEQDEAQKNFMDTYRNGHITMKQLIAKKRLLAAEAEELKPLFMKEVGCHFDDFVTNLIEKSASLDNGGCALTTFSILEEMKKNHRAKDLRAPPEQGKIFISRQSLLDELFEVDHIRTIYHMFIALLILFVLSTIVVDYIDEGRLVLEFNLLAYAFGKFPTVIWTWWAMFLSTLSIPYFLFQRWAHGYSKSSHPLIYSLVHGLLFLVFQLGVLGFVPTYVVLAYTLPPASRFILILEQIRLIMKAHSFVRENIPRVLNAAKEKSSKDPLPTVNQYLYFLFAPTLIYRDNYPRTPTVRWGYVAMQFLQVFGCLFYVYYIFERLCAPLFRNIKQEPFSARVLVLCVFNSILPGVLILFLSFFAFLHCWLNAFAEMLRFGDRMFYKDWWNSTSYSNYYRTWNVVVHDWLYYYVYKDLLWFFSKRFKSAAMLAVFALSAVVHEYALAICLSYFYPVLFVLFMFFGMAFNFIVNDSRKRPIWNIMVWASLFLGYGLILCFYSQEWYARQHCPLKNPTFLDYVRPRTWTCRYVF

| SMILES | Ratio IC50 (Oryctolagus cuniculus) | pIC50 [1] | pIC50 [2] | pIC50 [3] |
| --- | --- | --- | --- | --- |
| CC(C)c1cccc(C(C)C)c1NC(=O)CCCSc1nc2ccccc2s1 | 3.6 | 7.00 | 7.55 | – |
| CC(C)c1cccc(C(C)C)c1NC(=O)CCCCCCCSc1nc2ccccc2[nH]1 | 1.7 | – | 7.74 | 7.52 |
| CC(C)c1cccc(C(C)C)c1NC(=O)CCCCCCCCCSc1nc2ccccc2o1 | 2.3 | 7.85 | 8.22 | 7.00 |
| CC(=O)Nc1c(C(C)C)cccc1C(C)C | – | – | 5.07 | – |
| COC(=O)c1ccc2oc(SCCCCCC(=O)Nc3c(C(C)C)cccc3C(C)C)nc2c1 | 3 | 6.68 | 7.15 | – |
| CC(C)c1cccc(C(C)C)c1NC(=O)CCCCSc1nc2ccccc2o1 | 2.6 | 6.66 | 7.08 | 5.44 |
| CC(C)c1cccc(C(C)C)c1NC(=O)CCCCCSc1nc2cc(C(=O)O)ccc2o1 | 1.3 | 5.35 | 5.44 | 4.96 |
| CCCCCC(=O)Nc1c(C(C)C)cccc1C(C)C | – | – | 6.77 | – |
| CC(C)c1cccc(C(C)C)c1NC(=O)CCCCCSc1nc2ccccc2s1 | 1.3 | 7.48 | 7.59 | 5.28 |
| CC(C)c1cccc(C(C)C)c1NC(=O)CCCSc1nc2ccccc2[nH]1 | 2.7 | 6.10 | 6.52 | 5.51 |
| CC(C)c1cccc(C(C)C)c1NC(=O)CCCCCSc1nc2c(CO)cccc2o1 | 4 | 6.74 | 7.35 | 4.96 |
| CC(C)c1cccc(C(C)C)c1NC(=O)CCCCCSc1nc2cccc(CO)c2o1 | 2 | 6.96 | 7.25 | 5.66 |
| CC(C)c1cccc(C(C)C)c1NC(=O)CCCCCSc1nc2ccccc2[nH]1 | 1.5 | 7.42 | 7.59 | 6.46 |
| CC(C)c1cccc(C(C)C)c1NC(=O)CCCCCSc1nc2ccncc2o1 | 3.9 | 6.80 | 7.39 | 5.39 |
| CCCCSc1nc2ccccc2o1 | – | – | 4.59 | – |
| CC(C)c1cccc(C(C)C)c1NC(=O)CCCCCCCCCCCCCCSc1nc2ccccc2o1 | 1.1 | 7.36 | 7.40 | 6.39 |
| CC(C)c1cccc(C(C)C)c1NC(=O)CCCCCSc1nc2cccc(C(=O)O)c2o1 | 1 | – | – | 4.96 |
| CCCCCCCN(CCCCCSc1nc(-c2ccccc2)c(-c2ccccc2)[nH]1)C(=O)Nc1ccc(F)cc1F [LECIMIBIDE] | – | 7.70 | 7.44 | 6.09 |
| CC(C)c1cccc(C(C)C)c1NC(=O)CCCCCCCCCSc1nc2ccccc2[nH]1 | 1.5 | 7.54 | 7.72 | 6.34 |
| CC(C)c1cccc(C(C)C)c1NC(=O)CSc1nc2ccccc2s1 | 1.5 | 7.33 | 7.51 | 6.74 |
| CC(C)c1cccc(C(C)C)c1NC(=O)CCCCCCCCCCCCCCSc1nc2ccccc2[nH]1 | 0.4 | 7.36 | 6.92 | 5.77 |
| CC(C)c1cccc(C(C)C)c1NC(=O)CSc1nc2ccccc2o1 | 5.7 | 6.70 | 7.46 | – |
| CC(C)c1cccc(C(C)C)c1NC(=O)CCCCCSc1nc2cnccc2o1 | 3.3 | 6.82 | 7.35 | 5.55 |
| CC(C)c1cccc(C(C)C)c1NC(=O)CCSc1nc2ccccc2o1 | – | – | 7.82 | – |
| CC(C)c1cccc(C(C)C)c1NC(=O)CCCCCCCCSc1nc2ccccc2s1 | 4.5 | 7.74 | 8.40 | 7.37 |
| CC(C)c1cccc(C(C)C)c1NC(=O)CCCCCSc1nc2ccc(CN(C)C)cc2o1 | 2.8 | 6.43 | 6.89 | 5.62 |
| CC(C)c1cccc(C(C)C)c1NC(=O)CCCCCSc1nc2ccccc2o1 | 6.5 | 7.19 | 8.00 | 5.72 |
| CC(C)c1cccc(C(C)C)c1NC(=O)CCCCCSc1nc2cc(N(C)C)ccc2o1 | 5.8 | 6.60 | 7.37 | 6.30 |

Reference: ChEMBL document CHEMBL4229418, “Design, synthesis and pharmacology of aortic-selective acyl-CoA: Cholesterol O-acyltransferase (ACAT/SOAT) inhibitors” (Bioorg Med Chem, 2018)
